Measured values published in patent publication US9393326B2, “Compositions and methods for multimodal imaging” (University Health Network, priority 2005, dated 2016).

What was measured:
[1] = In vitro MR imaging in multimodal phantom
Source text: The phantom and the vials were filled to capacity to minimize air-induced susceptibility artefacts. Scans were produced using a T1 weighted spin echo sequence with a repetition time (TR) of 400 ms, an echo time (TE) of 9 ms, a slice thickness of 3 mm, a FOV of 1 9.9×19.9 cm and an image carrier of 256×192 pixels. The relative signal intensity was taken over the ROI. Solutions of free signal modifying agents were also imaged as controls in both modalities.

[2] = In vitro CT imaging in multimodal phantom; conditions: 120 kV, 300 mA
Description: In vitro contrast efficacy was determined by imaging the liposome formulated signal modifying agents at varying concentrations in both CT and MR, using a multimodal imaging phantom. To minimize the amount of agent leakage from liposomes, in vitro imaging scans were performed immediately following the removal of free agents by dialysis. […] The mean attenuation in Hounsfield units was measured using circular regions of interest (ROI). Attenuation values were then plotted against signal modifying agent concentrations using linear regression analysis.

[3] = In vitro relaxometry (r1, r2); type: physicochemical; conditions: 20° C., 1.5 T, versus gadolinium concentration (free iohexol: [I])
Description: All in vitro relaxometry measurements were performed at 20° C. on a 1.5 Tesla, 20-cm-bore superconducting magnet (Nalorac Cryogenics Corp., Martinez, Calif.) controlled by an SMIS spectroscopy console (SMIS, Surrey, UK). The T1 relaxation time data were acquired using an inversion recovery (IR) sequence (45) with 35 inversion recovery time (TI) values logarithmically spaced from 1 to 32000 ms. A 10 second delay was given between each acquisition and the next inversion pulse. […] For every measurement 2000 even echoes were sampled with 8 averages. The effects of any residual transverse magnetization following the off-resonance irradiation was removed by phase-cycling the π/2 pulse (−x/x).
The T1 relaxation data were analyzed assuming mono-exponential behaviour
[formula] where S is the signal observed, M0 is the magnetization at equilibrium, t is time and T1 is the longitudinal relaxation time). All T2 decay data were plotted to a one component T2 model with a Gaussian fit on a logarithmic time scale. The r1 and r2 values were calculated from linear regression analysis of 1/T1 and 1/T2 relaxation rates versus gadolinium concentration.

SMILES | peak differential signal intensities with respect to water in MR ([1]; gadolinium 1 to 9 mmol/L) [SI] | CT attenuation (linear regression) [2] | r1 [3] [s^−1mmol^−1L] | r2 [3] [s^−1mmol^−1L] | r1 ([3]; listed as unencapsulated gadoteridol) [s^−1mmol^−1L] | average differential signal intensity in MR relative to water ([1]; iodine 0 to 17 mmol/L) [SI] | r1 ([3]; listed as iohexyl) [s^−1mmol^−1L]
CC(O)CN1CCN(CC(=O)[O-])CCN(CC(=O)[O-])CCN(CC(=O)[O-])CC1.[Gd+3] (stereo not shown) [Free Gadoteridol, gadolinium complex of 10-(2-hydroxy-propyl)-1,4,7,10-tetraazacyclododecane-1,4,7-triacetic acid] | > 600 | 11.1±0.5 HU/(mg of gadolinium) in 1 mL of HBS | 5.14 ± 0.06 | 6.21 ± 0.08 | 5.1 |  | 
CC(=O)N(CC(O)CO)c1c(I)c(C(=O)NCC(O)CO)c(I)c(C(=O)NCC(O)CO)c1I (stereo not shown) [Free Iohexol, iohexyl] |  | 29.0±0.4 HU/(mg of iodine) in 1 mL of HBS | 0.00 ± 0.00 | 0.01 ± 0.01 |  | 1.8±7.1 | 0.0
